Patent US6777431B2, “Non-convalent thrombin inhibitors” (Corvas International, Inc., priority 2001, dated 2004)
pIC50, pKi: −log10 of the molar value.

target: T1, Trypsin (Bos taurus, UniProt P00760); experiment: Trypsin chromogenic substrate assay (S-2222); assay type: biochemical; settings: bovine pancreatic trypsin 0.5 nM, S-2222 250 μM, HBSA pH 7.5
T1 construct: Purified (3×-crystallized; TRL3) bovine pancreatic trypsin was obtained from Worthington Biochemical Corp; purchased Worthington Biochemical Corp. TRL3; host or cells: bovine pancreas
T1 sequence (P00760 24-246): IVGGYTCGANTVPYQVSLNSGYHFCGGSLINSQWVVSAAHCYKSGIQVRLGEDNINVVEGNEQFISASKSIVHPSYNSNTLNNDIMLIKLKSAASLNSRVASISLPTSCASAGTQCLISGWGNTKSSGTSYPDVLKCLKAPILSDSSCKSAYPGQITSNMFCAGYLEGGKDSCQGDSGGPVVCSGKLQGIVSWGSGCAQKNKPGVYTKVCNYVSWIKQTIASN
Description: (§1) The ability of compounds of the present invention to act as a selective inhibitor of thrombin activity was assessed by determining the concentration of test-compound which inhibited the activity of this enzyme by 50%, (IC50) or by determining the Ki value, and comparing this value to that determined for all or some of the following related serine proteases: recombinant tissue plasminogen activator (rt-PA), plasmin, activated protein C, chymotrypsin, factor Xa and trypsin. Ki is calculated from the IC50.
(§2) The buffer used for all assays was HBSA (10 mM HEPES, pH 7.5, 150 mM sodium chloride, 0.1% bovine serum albumin).
The assay for IC50 or Ki determinations was conducted by combining in appropriate wells of a Corning microtiter plate, 50 microliters of HBSA, 50 microliters of the test compound at a specified concentration (covering a broad concentration range) diluted in HBSA (or HBSA alone for V0 (uninhibited velocity) measurement), and 50 microliters of the enzyme diluted in HBSA. […] The initial velocity of chromogenic substrate hydrolysis was measured by the change in absorbance at 405 nm using a Thermo Max® Kinetic Microplate Reader over a 5 minute period in which less than 5% of the added substrate was utilized. […] Ki may be calculated from the IC50 value. […]

Row | pIC50 | Structure (SMILES)
1 | 5.60 to 6.52 | Cc1ccc(NS(=O)(=O)Cc2ccccc2)c(=O)n1CCCNc1ccncc1 [A]

target: Thrombin (Homo sapiens, UniProt P00734); experiment: Thrombin (fIIa) chromogenic substrate assay (Pefachrome t-PA); assay type: biochemical; settings: human a-thrombin 0.5 nM, Pefachrome t-PA 250 μM, 30 min preincubation, HBSA pH 7.5; Ki calculated from the IC50
Description: as §1, §2
The assay for IC50 or Ki determinations was conducted by combining in appropriate wells of a Corning microtiter plate, 50 microliters of HBSA, 50 microliters of the test compound at a specified concentration (covering a broad concentration range) diluted in HBSA (or HBSA alone for V0 (uninhibited velocity) measurement), and 50 microliters of the enzyme diluted in HBSA. Following a 30 minute incubation at ambient temperature, 50 microliters of the substrate at the concentrations specified below were added to the wells, yielding a final total volume of 200 microliters. The initial velocity of chromogenic substrate hydrolysis was measured by the change in absorbance at 405 nm using a Thermo Max® Kinetic Microplate Reader over a 5 minute period in which less than 5% of the added substrate was utilized. The concentration of added inhibitor which caused a 50% decrease in the initial rate of hydrolysis was defined as the IC50 value. Ki may be calculated from the IC50 value.
Enzyme activity was determined using the chromogenic substrate, Pefachrome t-PA (CH3SO2-D-hexahydrotyrosine-glycyl-L-Arginine-p-nitroaniline, obtained from Pentapharm Ltd.). The substrate was reconstituted in deionized water prior to use.
The initial velocity of Pefachrome t-PA hydrolysis was measured by the change in absorbance at 405 nm using a Thermo Max® Kinetic Microplate Reader over a 5 minute period in which less than 5% of the added substrate was utilized. The concentration of added inhibitor which caused a 50% decrease in the initial rate of hydrolysis was defined as the IC50 value. Ki was calculated from the IC50 value.

Row | pKi | Structure (SMILES)
2 | ≥ 7.00 | Cc1cnc(NCC(F)(F)c2ccccc2)c(=O)n1CCNc1ccncc1 [B]
3 | 6.52 to 7.00 | Cc1cnc(NCCCc2ccccc2)c(=O)n1CCCNc1ccncc1 [O]
4 | ≥ 7.00 | Cc1ccc(NS(=O)(=O)Cc2ccccc2)c(=O)n1CCCNc1ccc2ncccc2c1 [H]
5 | 6.52 to 7.00 | Cc1ccc(NS(=O)(=O)Cc2ccccc2)c(=O)n1CCCNc1cccc2ncccc12 [P]
6 | ≥ 7.00 | Cc1ccc(NS(=O)(=O)Cc2ccc(Cl)cc2)c(=O)n1CCCNc1ccncc1 [F]
7 | ≥ 7.00 | Cc1ccc(NS(=O)(=O)Cc2ccccc2)c(=O)n1CCCN(C)c1ccncc1 [E]
8 | ≥ 7.00 | Cc1cnc(NCC(F)(F)c2ccccc2)c(=O)n1CCCNc1ccncc1 [C]
9 | 6.52 to 7.00 | Cc1ccc(NS(=O)(=O)Cc2ccccc2)c(=O)n1CCCNc1ncnc2[nH]cnc12 [G]
10 | ≥ 7.00 | Cc1ccc(NS(=O)(=O)Cc2ccc(Cl)cc2)c(=O)n1CCCNc1ccncc1F [K]
11 | 6.52 to 7.00 | Cc1cnc(NCCc2ccccc2)c(=O)n1CCCNc1ccncc1 [D]
12 | ≥ 7.00 | Cc1ccc(NS(=O)(=O)Cc2ccccc2)c(=O)n1CCCNc1ccnc2ccccc12 [L]
13 | ≥ 7.00 | Cc1ccc(NS(=O)(=O)Cc2ccccc2)c(=O)n1CCCNc1ccncc1 [A]
14 | ≥ 7.00 | Cc1ccc(NS(=O)(=O)Cc2ccccc2)c(=O)n1CCCNc1ccncc1F [J]
15 | 5.60 to 6.52 | Cc1ccc(NS(=O)(=O)Cc2ccccc2)c(=O)n1CCCNc1cccc(N)n1 [R]
16 | 5.60 to 6.52 | Cc1ccc(NS(=O)(=O)Cc2ccccc2)c(=O)n1CCCn1ncc2ccc(N)cc21 [Q]
17 | 6.52 to 7.00 | Cc1ccc(NS(=O)(=O)Cc2ccccc2)c(=O)n1CCCNc1ccc(N)nc1 [N]
18 | ≥ 7.00 | Cc1ccc(NS(=O)(=O)Cc2ccccc2)c(=O)n1CCCNc1ccncn1 [M]
19 | ≥ 7.00 | Cc1ccc(NS(=O)(=O)Cc2ccccc2)c(=O)n1CCCNc1ccc2cc[nH]c2c1 [I]
